These results are taken from patent publication US10745434B2, “Uridine phosphoramide prodrug, preparation method therefor, and medicinal uses thereof” (priority 2016, dated 2020).

Read-outs that look alike come from different tables or passages of the source. Bounds are passed on as bounds.

Series [1] deals with T1, herg potassium ion channel (Homo sapiens, UniProt Q12809).
T1 construct: host or cells: CHO cells stably expressing hERG
Nature of the series: In vitro cardiotoxicity, hERG manual patch clamp in CHO cells. Format: cell-based. Background: Block of hERG is tested as a sign of cardiac risk.
Procedure: The experiment adopted CHO cells which can stably express the herg potassium ion channel from AVivaBiosciences company, wherein the cells were incubated in a constant-humidity environment at the temperature of 37 DEG C. with 5% CO2.
The compounds were tested on a Multiclamp patch-clamp amplifier at room temperature; the output signals were digitized by using a DLigital 1440 A/D-D/A board; the PCLAMP 10 software was used for recording and controlling. The minimum sealing resistance was set to 500 MOhms and the minimum specific hERG current was set to 0.4 nA for quality control.
Clampfit (V10.2, Molecular Devices), Excel 2003 and GraphPad Prism 5.0 were used for data analysis.

The test system of the next series is HCV GT1b replicons. Put plainly: Anti-HCV replicon activity, HCV GT1b stable transfection replicon cell line (luciferase). Format: cell-based, hepatitis C virus (HCV) genotype (GT) 1b. The protocol:
(§1) A hepatitis C virus (HCV) genotype (GT) 1b stable transfection replicon cell line system was used to determine the inhibitory activity of the compounds to the HCV GT1b replicons. In this experiment, the compound 06a (GS-7977) was used as a control compound to monitor the experimental quality.
(§2) [drawing 4] 2. Compound dilution: 20 mM mother liquor was prepared by using 100% DMSO, and the compound DMSO mother liquor was diluted and added to a 96-well experiment plate. The final concentration of the DMSO was 0.5%. In in-vitro anti-HCV activity experiments and cytotoxicity experiments, all compounds had the initial concentration of 20 microns, and were diluted by 5 times of dilution. The final concentration of the DMSO of 6 concentrations were 0.5%. 3. Cell treatment: HCV-1b replicon sub-cells were added to the above 96-well cell plate (8,000 cells/well), and then placed into an incubator of 37 DEG C. and 5% CO2 for culturing for 3 days. 4. Cell activity detection: a cell growth fluorescent titration detection reagent was added to each well; after the cells were cultured for 1 hour in the incubator of 37 DEG C. and 5% CO2, a spectrophotometer detection system Envision was used to detect a Fluorescence signal value. The original data, i.e, relative fluorescence units (RFUs), was used for the calculation of the cell toxicity of the compounds. 5. Anti-HCV replicon activity detection: a luciferase light-emitting substrate bright-GLO was added to each well, and a chemiluminescence detection system Envision was used for detecting a Luminescence signal value in 5 minutes. The original data, i.e., relative light units (RLUs), was used for the calculation of the inhibitory activity of the compounds. 6. Data processing: the RFUs obtained in step 1.3 were processed into a cell activity percentage by using the following formula: […]
The RLUs obtained in step 1.4 were processed into a inhibition percentage by using the following formula:
[formula] *CPD: signal values of compound wells HPE (high percent effect): 100% effective action control well signal value, with only DMEM culture solution in the wells; The ZPE (zero percent effect): noneffective control well signal value, with 0.5% DMSO to replace the compound.
(§3) The cell activity percentage and the inhibition percentage were respectively imported into GraphPad Prism software for data processing to obtain curves corresponding to the compounds and their values of cytotoxicity (CC50) and inhibitory activity (ECD50) to the HCV replicons.
(In general: In antiviral work, replicon cells carry a viral genome segment that copies itself.)

Series [2] is described as follows: Cytotoxicity in HCV-1b replicon cells (cell growth fluorescent titration). Format: cell-based. The note with it: HCV genotype 1b stably transfected replicon cells, HCV GT1b replicon cells. As for the experimental part:
as §1, §2, §3

Series [3] in a line: Rat in-vivo metabolism and tissue distribution: metabolite TSL1100 in liver after intragastric administration. On the set-up: species or system SD rats. The note with it: rat PO 50 mg/kg. The protocol:
18 SD rats (male, 6-9 weeks old, purchased from Vital River Animal center) were divided into 6 groups randomly, 3 rats in each group, fasted for 12 hours first before administration, freely fed with water during the fasting period. After the administration is carried out for 4 hours, the fasting was ended. 50 mg compound was precisely weighed on a balance, and 95% (0.5% of cd))/5% solutol aqueous solution was added and uniformly mixed, and subjected to ultrasonic treatment for later use. The drug delivery dose was 50 mg/kg; the drug delivery concentration was […]; and the drug delivery volume was […].
The sample collection scheme: taking blood and liver tissues after carrying out intragastric administration on rats for 1 h, 2 h, 3 h, 6 h, 12 h and 24 h.
The liver tissue sample treatment method: taking a rat tissue sample in a plastic EP tube, and adding 5 times (w:v) 1.75 mL MeOH and 5 μL 50% KOH aqueous solution together with 0.75 mL 268 mM EDTA solution to prepare a solution, uniformly mixing and taking 60 μL sample, adding a 240 μL internal standard solution for mixing, carrying out vortex oscillation for 2 minutes, and centrifuging for 10 minutes (13000 rpm and 4 DEG C.), taking 30 μL of supernate, adding 30 μL of water, carrying out vortex mixing, centrifuging at 4 DEG C., and then taking 5 μL supernate for […] analysis.
LC-MS/MS-O (API 4000) liquid mass spectrometer and chromatographic column are adopted: ACQUITY UPLC BEH C18 130 Å 1.7 μm 2.1×50 mm the composition com: and tomitamide was adopted as an internal standard compound, gradient elution analysis is carried out after the sample is fed into the sample, and the internal standard is recorded respectively, the retention time and the peak area of the to-be-tested compound and the metabolite TSL 1100, the software phoenix winnonlin 6.2. The method is analyzed by an srms quantitative detection method.

Series [4] concerns HCV-1b replicon sub-cells. Put plainly: Cytotoxicity in HCV-1b replicon cells (cell growth fluorescent titration). The settings on record: HCV GT1b replicon cells, 3 days. Format: cell-based. As for the experimental part:
as §1, §2, §3

Setting [5] is: HCV GT1b replicons, 3 days, maximum test concentration 20 μM, read-out: EC50 anti-HCV replicon activity.

T1 sequence (Q12809 whole entry): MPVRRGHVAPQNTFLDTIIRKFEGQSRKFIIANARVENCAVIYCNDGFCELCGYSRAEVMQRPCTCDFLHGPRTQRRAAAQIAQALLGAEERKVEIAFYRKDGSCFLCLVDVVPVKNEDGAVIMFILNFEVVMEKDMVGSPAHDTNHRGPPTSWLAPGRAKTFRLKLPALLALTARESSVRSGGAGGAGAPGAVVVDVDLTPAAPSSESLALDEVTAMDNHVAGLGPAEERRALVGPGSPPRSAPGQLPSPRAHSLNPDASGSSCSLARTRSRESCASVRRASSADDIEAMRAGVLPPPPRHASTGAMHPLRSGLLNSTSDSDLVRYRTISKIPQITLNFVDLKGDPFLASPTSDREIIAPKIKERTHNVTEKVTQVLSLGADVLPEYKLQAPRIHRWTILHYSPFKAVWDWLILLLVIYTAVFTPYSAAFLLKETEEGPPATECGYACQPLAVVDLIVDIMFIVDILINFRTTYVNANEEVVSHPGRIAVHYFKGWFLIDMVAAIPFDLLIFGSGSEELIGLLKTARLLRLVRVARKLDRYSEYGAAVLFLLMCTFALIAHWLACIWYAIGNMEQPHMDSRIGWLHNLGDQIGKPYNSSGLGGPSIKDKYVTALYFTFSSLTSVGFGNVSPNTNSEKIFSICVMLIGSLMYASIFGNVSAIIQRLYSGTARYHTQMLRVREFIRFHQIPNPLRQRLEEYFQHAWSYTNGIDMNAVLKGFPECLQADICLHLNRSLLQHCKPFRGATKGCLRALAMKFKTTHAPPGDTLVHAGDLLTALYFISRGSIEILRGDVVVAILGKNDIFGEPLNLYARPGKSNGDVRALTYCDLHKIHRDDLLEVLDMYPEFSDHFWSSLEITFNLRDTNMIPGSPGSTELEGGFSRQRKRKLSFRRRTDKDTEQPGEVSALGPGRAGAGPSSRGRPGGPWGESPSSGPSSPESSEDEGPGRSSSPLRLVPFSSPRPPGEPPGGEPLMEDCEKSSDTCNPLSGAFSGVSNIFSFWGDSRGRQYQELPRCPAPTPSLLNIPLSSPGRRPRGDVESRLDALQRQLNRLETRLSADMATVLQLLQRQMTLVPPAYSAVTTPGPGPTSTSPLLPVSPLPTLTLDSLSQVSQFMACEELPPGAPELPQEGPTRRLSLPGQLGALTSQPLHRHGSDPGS

Take `CC(C)OC(=O)[C@H](C)N[P@](=O)(OC[C@H]1O[C@@H](n2ccc(=O)[nH]c2=O)[C@](C)(F)[C@@H]1O)Oc1ccccc1` [Patent compound 06a in 2010]: the IC50 in series [1] was > 10 µM. Also, in the series on HCV GT1b replicons (Hepatitis C virus, GT1B, 72 h, read-out: EC50 anti-HCV replicon activity, HCV GT1b replicons, 3 days, maximum test concentration 20 μM), the EC50 came out at 0.719 µM. Moreover, the CC50 at 3 days in series [2] was > 3 µM.

For the compound `CC(C)OC(=O)[C@H](C)NP(=O)(OCc1ccccc1)OC[C@H]1O[C@@H](n2ccc(=O)[nH]c2=O)[C@](C)(F)[C@@H]1O` (single isomer, unassigned) [Compound 01a], in series [3], the AUCExtra is given as 4.74%, the AUMCExtra is reported as 18.9% and the Tlast was 24.0 h. In the series with HCV GT1b replicons (setting [5]), the EC50 was 0.301 µM. Moreover, the CC50 in series [4] was > 20 µM.

In the case of `CC(C)OC(=O)[C@H](C)NP(=O)(OCc1ccccc1)OC[C@H]1O[C@@H](n2ccc(=O)[nH]c2=O)[C@](C)(F)[C@@H]1O` (single isomer, unassigned) [Compound 01b], in series [3], the AUCExtra is recorded as 6.61%, the AUMCExtra was 19.8% and the Tlast came out at 12.0 h. Moreover, in the series with HCV GT1b replicons (setting [5]), the EC50 is 9.15 µM. Besides, in series [4], the CC50 was > 20 µM.

As usually defined, the IC50 is the midpoint of a concentration-inhibition curve. Broadly, the CC50 is the concentration giving 50% cytotoxicity.
